From US20050165218A1, “Crystal structure of the ligand binding domain of the retinoic acid-related orphan receptor alpha (ror-alpha)” (priority 2002, published 2005)
Structures can show the parent of a compound that is named as a salt.

Experiments:
RORα [1] = target: T1, RORα (Homo sapiens, UniProt P35398); test: RORE reporter transcription in cells partially depleted of cholesterol (HPCD plus lovastatin, LDL-free serum); conditions: for Transcription of the RORE reporter in response to compound (in words): HPCD and lovastatin treated cells, compared to vehicle; for fold induction at 10 µM: read-out: Fold induction (ROR alpha transcriptional activity)
T1 sequence (P35398 1-556 isoform P35398-1): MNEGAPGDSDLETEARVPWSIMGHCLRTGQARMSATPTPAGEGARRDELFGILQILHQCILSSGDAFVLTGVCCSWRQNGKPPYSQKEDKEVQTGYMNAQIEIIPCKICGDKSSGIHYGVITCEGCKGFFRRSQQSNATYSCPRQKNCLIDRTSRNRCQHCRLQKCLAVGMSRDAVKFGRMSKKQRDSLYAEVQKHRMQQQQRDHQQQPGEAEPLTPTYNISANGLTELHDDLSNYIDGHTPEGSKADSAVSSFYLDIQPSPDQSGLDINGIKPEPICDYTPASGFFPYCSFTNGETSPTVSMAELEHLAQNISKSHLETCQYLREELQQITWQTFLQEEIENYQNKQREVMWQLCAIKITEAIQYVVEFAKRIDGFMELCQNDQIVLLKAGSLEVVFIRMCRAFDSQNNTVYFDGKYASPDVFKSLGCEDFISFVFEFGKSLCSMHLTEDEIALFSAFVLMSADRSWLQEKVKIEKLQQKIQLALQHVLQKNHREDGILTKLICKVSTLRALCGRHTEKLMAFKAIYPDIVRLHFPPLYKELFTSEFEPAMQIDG
Description: We next establish whether in eukaryotic cells partially depleted of cholesterol, RORα transcriptional activity can be reconstituted by addition of cholesterol. We therefore treat the cells with hydroxypropyl-β-cyclodextrin (HPCD), a cyclodextrin derivative known to function as a cholesterol shuttle. HPCD treatment is used in experiments aiming at the partial depletion of intracellular cholesterol. In order to prevent an increase of intracellular cholesterol through the activation of the mevalonate pathway, cells are also treated with lovastatin while they are fed with a medium containing LDL-free serum.

RORα [2] = target: T1, RORα; test: RORE-tk-luc luciferase reporter assay in U2OS cells in essentially sterol free medium, fluvastatin treatment; type: cell-based
Method: Mammalian cells receive cholesterol by uptake from lipoproteins (LDL-cholesterol) and are able to synthesize cholesterol through the mevalonate pathway. In a situation where cells are cultured under conditions essentially sterol free, a key transcription factor, SREBP will be proteolytically cleaved and this releases a transcription factor to the nucleus. This transcription factor is able to transcriptionally activate HMG-CoA reductase, which is a critical step in the cholesterol biosynthesis through the mevalonate pathway. Statins, which are know drugs for hypercholesterol state are specific inhibitors of the HMG-CoA reductase. When cells are cultivated in sterol free medium, their HMG-CoA reductase is strongly activated. In this experiment cells, cultivated in medium essentially sterol free, are treated with fluvastatin. […] U2OS cells are transfected with expression vector for RORα (ROR) together with a luciferase reporter gene bearing a consensus response element for RORα (RORE-tk-luc). Luciferase activity is assayed in cells from 6 well plates and related to the activity in cells transfected with or without treatment with fluvastatin. The results are normalized to the protein content.

RORα-LBD = target: T2, RORα-LBD (Homo sapiens, UniProt P35398); test: Ligand exchange screening by mass spectrometry (ESI Q-Tof, non-covalent complexes); type: binding; conditions: for Displacement of cholesterol bound to the ROR-LBD (mass spectrometry): 10-fold molar excess of ligand, overnight at 4° C., protein 135 μM
T2 construct: (His)6RORα-LBD269-556 is produced in Sf9 cells; (His)6 (N); made in house; host or cells: Sf9 insect cells
T2 sequence (P35398 269-556 isoform P35398-1): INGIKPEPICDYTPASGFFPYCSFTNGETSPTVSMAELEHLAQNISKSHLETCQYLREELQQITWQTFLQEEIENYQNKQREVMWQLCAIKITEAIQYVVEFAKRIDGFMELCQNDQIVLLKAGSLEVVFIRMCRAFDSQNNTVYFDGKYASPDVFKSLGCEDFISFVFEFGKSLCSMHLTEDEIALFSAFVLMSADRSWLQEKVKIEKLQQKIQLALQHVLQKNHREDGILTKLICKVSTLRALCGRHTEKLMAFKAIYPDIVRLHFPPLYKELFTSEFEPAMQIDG
Method: (His)6RORα-LBD269-556 is produced in Sf9 cells and purified by Ni-NTA chromatography followed by size exclusion chromatography. The protein in Tris-HCl buffer at a concentration of 135 μM is incubated overnight at 4° C., with a 10-fold molar excess of 25-hydroxycholesterol (5-cholesten-3beta, 25-diol) or cholesterol sulfate (5-cholesten-3beta-ol-sulfate). Prior to mass spectrometry analysis, the protein is subjected to fast buffer exchange in 50 mM ammonium acetate pH 7.0 by size exclusion chromatography using disposable Centri∘Spin 20 columns (Princeton Separations, Adelphia, N.J.) according to manufacturer′s instructions. Mass spectrometry is carried out using a Q-Tof (Micromass, Manchester, UK) quadrupole time-of-flight hybrid tandem mass spectrometer equipped with a Micromass Z-type electrospray ionization source (ESI). The acquisition mass range is typically m/z 1500-4500 in 5 seconds. The mass spectrometer is tuned in order to allow detection of multiply-charged species of non-covalent complexes. The source block temperature and desolvation temperature are kept at 50° C. and 80° C., respectively. Sample cone voltage (Vc) is set to 23 volts for standard measurements. In-source induced fragmentation experiments are performed by increasing Vc up to 100 volts. The protein solution is infused at a flow rate of 10 μl/min. Data are recorded and processed using Masslynx software. Spectra are deconvoluted using MaxEnt analysis software (Micromass, Manchester, UK).
Generation of the construct (His)6RORα-LBD270-523, fermentation and purification are done as described above. […] The resulting solution is incubated overnight at 37° C. and further purified by size exclusion chromatography on a SPX75 column, before concentrating to 17.6 mg/ml for crystallization trials. MS determination of the native complex is done as described previously (Kallen et al., Structure, Vol.10, 1697-1707, 2002). A control experiment is done by incubating the same amount of RORα LBD protein with 5% DMSO under identical conditions. The protein concentration is approximately 15 μM in 50 mM AcONH4, pH 7.0. Both spectra are recorded under identical conditions with Vc=20 volts.

RORα [3] = target: T1, RORα; test: Screen of cholesterol derivatives for binding of RORα to the RORE in essentially cholesterol-free medium; conditions: baculovirus-expressed RORα
Description: The substances identified by rational design can be further analyzed in drug screening assay. The drug screening assays of the present invention may use any of a number of assays for measuring the functionality of RORα, including for the ability of RORα following ligand binding to transcriptionally regulate a gene, by increasing phosphorylation of RORα, by allowing RORα to dimerize or to heterodimerize with another nuclear receptor, by improving its ability to interact with co-activators, by changing its conformation and by increasing its ability to bind DNA. In one binding assay, a nucleic acid containing a RORα binding site is placed on a coated or onto a solid support. A preferred binding site is a response element (RORE) composed of a 6 bp AT rich motif immediately preceding a half site AGGTCA and the possible variants of this response element that are given in Giguere et al. 1994, Genes & Development 8:538-553, Mc Broom et al. 1995 Mol.Cell. Biol. 15: 796-808, Moraitis & Giguere, 1999; Molecular Endocrinology. 13:431-439. Methods for placing the nucleic acid on the solid support are well known in the art and include linking biotin to the nucleic acid and linking avidin to the solid support. The RORα is allowed to equilibrate with the nucleic acid and drugs are tested to see if they disrupt or enhance the binding. […]

[4] = compounds 10 μM, cells treated with HPCD and lovastatin, LDL-free serum, control = 1

| Compound | Fold induction (ROR alpha transcriptional activity) (RORα [1]; 10 µM) | Transcription of the RORE reporter in response to compound (in words) (RORα [1]) | fold induction at 10 µM (RORα [1]) | further results |
| --- | --- | --- | --- | --- |
| C[C@@H](CO)CCC[C@@H](C)[C@H]1CC[C@H]2[C@@H]3CC=C4C[C@@H](O)CC[C@]4(C)[C@H]3CC[C@]12C [27-OH-Chol] | 1.5 |  |  |  |
| CC(C)n1c(/C=C/C(O)CC(O)CC(=O)O)c(-c2ccc(F)cc2)c2ccccc21 (stereo not shown) [Fluvastatin] |  |  |  | fold induction at 5 µM (RORα [2]; fluvastatin +5 μM, paired control 76, read-out: Fold induction (RORα transcriptional activity, luciferase)): 48; fold induction at 10 µM (RORα [2]; fluvastatin +10 μM, paired control 93, read-out: Fold induction (RORα transcriptional activity, luciferase)): 38 |
| CCC(CC[C@@H](C)[C@H]1CC[C@H]2[C@@H]3CC=C4C[C@@H](OC(C)=O)CC[C@]4(C)[C@H]3CC[C@]12C)C(C)C (stereo partly drawn) [5-Cholesten-24beta, 5-Cholesten-24β-ethyl-3β-ol acetate] | 1 | does not trigger any increase |  |  |
| CC(C)CCC[C@](C)(O)[C@H]1CC[C@H]2[C@@H]3CC=C4C[C@@H](O)CC[C@]4(C)[C@H]3CC[C@@]21C [20(S)-OH-Chol] | 1.2 |  |  |  |
| CC(C)CCC[C@@H](C)[C@H]1CC[C@H]2[C@@H]3CC[C@H]4C[C@@H](O)CC[C@]4(C)[C@H]3CC[C@]12C [Cholestanol] |  | stimulated |  | Fold induction (ROR alpha transcriptional activity) (RORα [1]; [4]): 2.4 |
| CC(C)CCC[C@@H](C)[C@H]1CC[C@H]2C3=CC=C4C[C@@H](O)CC[C@]4(C)[C@H]3CC[C@]12C [7-Dehydrochol, 7-Dehydrocholesterol] |  |  |  | Fold induction (ROR alpha transcriptional activity) (RORα [1]; [4]): 4.6 |
| CC(C)CCC[C@@H](C)[C@H]1CC[C@H]2[C@@H]3CC=C4C[C@@H](O)CC[C@]4(C)[C@H]3CC[C@]12C [Cholesterol, cholest-5-en-3beta-ol] |  | stimulated | 3.3 |  |
| C[C@H](CCCC(C)(C)O)[C@H]1CC[C@H]2[C@@H]3CC=C4C[C@@H](O)CC[C@]4(C)[C@H]3CC[C@]12C [25-OH-Chol, 5-cholesten-3beta, 25-diol] |  |  | 1.6 | Displacement of cholesterol bound to the ROR-LBD (mass spectrometry) (RORα-LBD): able to fully displace cholesterol |
| CC(C)CCC[C@@H](C)[C@H]1CC[C@H]2[C@@H]3CC=C4C[C@@H](OS(=O)(=O)O)CC[C@]4(C)[C@H]3CC[C@]12C [Chol. Sulfate, 5-cholesten-3beta-ol-sulfate] |  |  | 5.4 | Displacement of cholesterol (RORα binding to RORE screen) (RORα [3]): able to displace cholesterol; Exchange of cholesterol by cholesterol-sulfate, MS-analysis (RORα-LBD; 1.0 mM ligand, 73 μM (His)6RORαLBD270-523, overnight at 37° C.): confirmed by MS-analysis; Displacement of cholesterol bound to the ROR-LBD (mass spectrometry) (RORα-LBD; listed as cholesterol sulfate): able to fully displace cholesterol; Displacement of cholesterol bound to the ROR-LBD (mass spectrometry) (RORα-LBD; listed as cholesterol-sulfate): could be exchanged with cholesterol-sulfate; Stability of ligand/ROR-LBD complex versus in-source collisions at various cone-voltages (RORα-LBD; compared with apo-ROR-LBD, Vc up to 100 volts): more stable |
| CC(C)CC[C@@H](O)[C@@H](C)[C@H]1CC[C@H]2[C@@H]3CC=C4C[C@@H](O)CC[C@]4(C)[C@H]3CC[C@]12C [22(R)-OH-Chol] | 1.2 |  |  |  |
| CC(C)CCC[C@@H](C)[C@H]1CC[C@H]2[C@@H]3CC=C4C[C@H](O)CC[C@]4(C)[C@H]3CC[C@]12C [Epicholesterol, 5-Cholesten-3α-ol] |  | stimulated | 2.8 |  |
